Read-outs that look alike come from different tables or passages of the source.
Columns and labels:
[1] = tested on: intracellular S. Typhimurium in RAW264.7 cells; assay: CFU assay of bacterial growth in macrophages; format: cell-based, Salmonella enterica serovar Typhimurium; settings: submicromolar concentrations, with gentamicin 20 mg/L, 24 h
Description: Overnight cultures of S. Typhimurium were diluted 1:100 in fresh LB broth and incubated for 2 h at 37°C. The bacteria were then collected and suspended in PBS to an OD600 of 0.6. RAW264.7 cells seeded in a 6-well plate were infected with S. Typhimurium at an MOI of 25 for 1 h. After infection, the cells were washed, exposed to 100 mg/L gentamicin for 1 h, and treated with SW14 (0.25 to 1 μM) in combination with 20 mg/L gentamicin for 24 h. Then, the infected cells were washed and lysed with 0.1% Triton X-100 in PBS for 10 min at 37°C to release the intracellular bacteria. The cell lysates were serially diluted in PBS, spread on LB agar plates, and incubated at 37°C for 18 h. The bacterial colonies on the plates were enumerated and expressed as CFU.

[2] = HCA cytotoxicity toward infected macrophages (nuclear staining); format: cell-based, murine; settings: mouse, RAW264.7 macrophages infected with S. Typhimurium, infected RAW264.7 cells, read-out: 50% cytotoxic concentration (CC50) toward macrophages
Description: (§1) Overnight cultures of RFP-expressing S. Typhimurium were prepared for infection by 1:100 dilution in fresh LB broth and incubation for 2 h at 37°C. The bacteria were then collected by centrifugation at 6,000 × g for 3 min and suspended in phosphate-buffered saline (PBS; pH 7.2) to an optical density of 0.6 at 600 nm, which was equivalent to 5 × 10^8 CFU/mL. RAW264.7 macrophages were seeded in 96-well black clear-bottom plates (Greiner) and incubated for 20 h followed by infection with RFP-expressing S. Typhimurium at a multiplicity of infection (MOI) of 50 for 1 h. […] Afterward, the cells were washed and stained with CellTracker Green (Thermo Fisher Scientific) for 30 min in serum-free DMEM followed by fixation in 3.7% formaldehyde (Sigma-Aldrich) for 20 min and stained with 0.2 mg/L DAPI (4′,6-diamidino-2-phenylindole; AAT Bioquest) for 30 min. Images of individual wells were captured and analyzed using a high-content imaging system (ImageXpress Micro 4; Molecular Devices). The CC50 and 50% effective concentration (EC50) values against intracellular bacteria of each compound were determined using CalcuSyn software (Biosoft).

S. Typhimurium SB10 = assay: MIC assay (broth microdilution); format: cell-based, Salmonella Typhimurium; settings: Salmonella enterica, TYPHIMURIUM
Description: (§2) The minimal inhibitory concentration (MIC) of each test compound against the individual bacterial strains was determined by the broth microdilution method following the guidelines recommended by the Clinical and Laboratory Standards Institute (CLSI) ([27]).

[3] = tested on: S. Typhimurium ATCC 14028; assay: MIC assay (broth microdilution); format: cell-based, Salmonella Typhimurium
Description: as §2

S. Typhimurium SA10 = assay: MIC assay (broth microdilution); format: cell-based, Salmonella Typhimurium; settings: Salmonella enterica, TYPHIMURIUM; Table S1(B), SA10
Description: as §2

S. Typhimurium NL08.10 = assay: MIC assay (broth microdilution); format: cell-based, Salmonella Typhimurium; settings: Salmonella enterica, TYPHIMURIUM
Description: as §2

S. Typhimurium 0911R = assay: microbe, parasite or virus in culture; format: cell-based, Salmonella Typhimurium; settings: Salmonella enterica, TYPHIMURIUM
Description: as §2

[4] = tested on: ROS levels in Salmonella-infected RAW264.7 cells; assay: Analysis of ROS in macrophages (H2DCFDA); format: cell-based, murine; settings: 1 h; SW14 at concentrations up to 8 μM
Description: RAW264.7 macrophages were seeded in 96-well black plates and infected by S. Typhimurium ATCC 14028 at an MOI of 25 for 1 h. After infection, the cells were washed, exposed to 100 mg/L gentamicin for 1 h, washed with warm Krebs-Ringer phosphate buffer (KRP buffer; 120 mM NaCl, 5 mM KCl, 1.7 mM KH2PO4, 8.3 mM Na2HPO4, 10 mM glucose, 1 mM CaCl2, 1.5 mM MgCl2, pH 7.3) and stained with H2DCFDA at 37°C with 5% CO2 for 45 min. The cells were then washed with KRP buffer and treated with SW14 or PMA at the desired concentrations in KRP buffer with 10% FBS. Fluorescence signals at 488/525 nm (excitation/emission) were measured using a SpectraMax M5 Microplate Reader (Molecular Devices).

[5] = tested on: S. Typhimurium ATCC 14028; assay: Analysis of bacterial susceptibility to H2O2 (CFU); format: cell-based, Salmonella enterica serovar Typhimurium; settings: SW14 0.5 μM, 1 h
Description: Overnight-grown S. Typhimurium cultured in LB medium were diluted 1:50 in LPM medium or LB medium followed by incubation at 37°C for 3 h. The bacterial suspension was adjusted to an OD600 of 0.2 in fresh LPM medium or LB medium, exposed to SW14 and H2O2 for 1 h at 37°C with agitation, then serially diluted 10-fold in PBS, and spread on LB agar plates. After incubation at 37°C for 18 h, the number of colonies was counted, and the results are expressed as CFU/mL.

[6] = tested on: intracellular S. Typhimurium in RAW264.7 macrophages; assay: microbe, parasite or virus in culture; format: cell-based, Salmonella enterica serovar Typhimurium; settings: for viability at 0.5 µM: TYPHIMURIUM, RAW264.7, read-out: viability of intracellular Salmonella compared to mock-treated cells
Description: as §1

[7] = tested on: ciprofloxacin-resistant S. Typhimurium strains SA10 and SB10 in RAW264.7 cells; assay: HCA of intracellular ciprofloxacin-resistant strains in macrophages; format: cell-based, Salmonella enterica serovar Typhimurium; settings: SA10 and SB10, gentamicin, 24 h
Description: as §1

Structure (SMILES): Clc1ccc2c(c1)C(NCCN1CCNCC1)=Nc1ccccc1O2 [SW14]
- viability of intracellular Salmonella (CFU assay) [1]: potent suppressive effect
- CC50 at 24 h [2]: 23.5 µM
- MIC (S. Typhimurium SB10): > 64 µg/mL
- MIC ([3]; Salmonella enterica): > 64 µg/mL
- MIC ([3]; Table S1(B), ATCC 14028): > 64 µg/mL
- MIC (S. Typhimurium SA10): > 64 µg/mL
- MIC (S. Typhimurium NL08.10): > 64 µg/mL
- MIC (S. Typhimurium 0911R): > 64 µg/mL
- ROS level (H2DCFDA fluorescence signal) in infected macrophages [4]: did not observe any significant change
- susceptibility of S. Typhimurium to H2O2 ([5]; minimal LPM medium): significantly increased
- susceptibility of S. Typhimurium to H2O2 ([5]; nutrient-rich LB broth): not in nutrient-rich LB broth
- inhibitory activity of ciprofloxacin and cefixime on intracellular Salmonella in combination with SW14 ([6]; 0.5 μM SW14, 24 h, equal to the antibiotic at 2-fold concentration): enhanced
- selectivity index (SI; CC50/EC50) ([6]; CC50 RAW264.7 / EC50 intracellular Salmonella): 47
- susceptibility of intracellular Salmonella to SW14 after Atg7 knockdown ([6]; RAW264.7 shATG7 clones vs empty vector, 24 h): more susceptible
- viability at 0.5 µM ([6]; Salmonella enterica, 3-MA 10 mM for 1 h, then SW14 0.5 μM for 24 h, HCA): 36.8%
- viability at 0.5 µM ([6]; Salmonella enterica, SW14 0.5 μM alone, 24 h, HCA): 45%
- EC50 ([6]; Salmonella enterica, RFP-expressing S. Typhimurium in RAW264.7, 24 h, with gentamicin 20 mg/L, HCA, read-out: 50% effective concentration (EC50) against intracellular Salmonella): 0.5 µM
- suppressive effect on intracellular S. Typhimurium in the presence of ROS scavengers ([6]; with NAC 10 mM or GSH 10 mM): reversed
- intracellular proliferation of ciprofloxacin-resistant isolates [7]: highly sensitive
